# Data: article PMC6212553, “Baicalein Enhances the Oral Bioavailability and Hepatoprotective Effects of Silybin Through the Inhibition of Efflux Transporters BCRP and MRP2” (Frontiers in Pharmacology, 2018)
# Legend:
# [1] = Bidirectional transport of silybin across Caco-2 cell monolayers; type: in vitro ADME, Human; conditions: human; Caco-2, silybin 2.5, 5 and 10 μM, with baicalein 5 μM
# Method: Human colon epithelial cell line (Caco-2) was purchased from American Type Culture Collection (Manassas, VA, United States) and frozen at -80°C. Wild type MDCK II, MDR1-MDCK II, BCRP-MDCK II, and MRP2-MDCK II cells were kindly supplied by the Netherlands Cancer Institute (Amsterdam, Netherlands). Transport study was carried out with Caco-2 cells, and MDCK II cells were transfected using a previously established method with slight modifications ([Yuan et al., 2017]). The Caco-2 cells were cultured at 37°C/5% CO2 in Dulbecco's modified Eagle's medium (DMEM) supplemented with 10% fetal bovine serum, 1% nonessential amino acids, and 1% penicillin-streptomycin. The Caco-2 cells were seeded onto polyester filter membranes in a 12-well Transwell® plate (Corning Costar Co., NY, United States) with 0.6 × 10^5 cells/cm^2. The monolayer cells were used for transport assays between 21 and 23 days. The MDCKII cells were seeded on transwell plates with a density of 2.0 × 10^5 cells/cm^2 and grown for 4-5 days to form a confluent monolayer. Bidirectional transport assays for Caco-2 and MDCK II cells were performed by adding silybin (10 μM) in assay buffer into either the apical (AP; A-to-B) or basolateral (BL; […] For inhibition studies, Caco-2 or MDCK II cell monolayers in both apical and basolateral chambers were preincubated with the inhibitor for 30 min. The fluorescence intensity of the sample collected from the AP or BL side was immediately detected in a 96-well black plate by the Microplate UV/VIS spectrophotometer (TECAN Infinite […], Männedorf, Switzerland). For liquid chromatography tandem-mass spectrometry (LC-MS/MS) analysis, the sample (100 μl) was mixed with methanol (50 μl) containing internal standard (25 ng/ml) and was stored at -80°C. The formula for calculating apparent permeability coefficient (Papp) values is as follows: (1) […] where dQ/dt (mM/s) represents the rate of permeation of the drug across the cells, C0 (mM) refers to the concentration in the donor compartment at time zero calculated from dosing solution, and A (cm^2) refers to the area of the cell monolayer. Papp (B-A) is the Papp value measured in the B to A direction, and Papp (A-B) is the Papp value measured in the A to B direction. The efflux ratio is given as ER = Papp (B to A)/Papp (A to B).
# [2] = test system: CCl4-induced liver injury model; assay: CCl4-induced acute liver injury in rats; type: in vivo, SD rats; set-up: Nerosis (histologic score, liver H&E) / Haemorrhage (histologic score, liver H&E) / Inflammation (histologic score, liver H&E) / Steatosis (histologic score, liver H&E): scale not given here
# Method: Male SD rats were randomly divided into seven groups: […] (2) Group II, given blank vehicle p.o. for 7 days; (3) Group III, treatment with silybin (100 mg/kg bodyweight, p.o.) for 7 days; […] After 24 h of CCl4 treatment, all rats were sacrificed under ether anesthesia. Blood samples were collected from the abdominal aorta for biochemical estimations. The liver was immediately removed and weighed with a large portion of the liver frozen in liquid nitrogen. The pathological liver changes were examined by hematoxylin and eosin (H&E) staining, which was performed by a pathologist who was blinded to this study. The serum levels of ALT, AST, AKP, and SOD as well as the cytokines TNF- α, IL-6, and IL-1β were detected by the assay kit, according to the manufacturer’s instructions.
# [3] = set-up: method as in Wen et al., 2008; conditions: after oral administration; ref Wen et al., 2008; cited from earlier work
# [4] = set-up: method as in Pradhan and Girish, 2006; conditions: doses <10 g/d; ref Pradhan and Girish, 2006; cited from earlier work
# [5] = 100 mg/kg p.o. 7 days, single agent, CCl4 on day 7
# [6] = silybin 100 mg/kg for 7 consecutive days, P < 0.01
smiles,measurement,setting,value
"COc1cc(C2Oc3cc([C@H]4Oc5cc(O)cc(O)c5C(=O)[C@@H]4O)ccc3OC2CO)ccc1O (some centres unmarked) [silybin, Silybin]",efflux ratio at 180 min,[1],~2
same,"Haemorrhage (histologic score, liver H&E)",[2]; [5],2.2±0.8
same,"Inflammation (histologic score, liver H&E)",[2]; [5],2.0±0.6
same,"Nerosis (histologic score, liver H&E)",[2]; [5],2.7±0.5
same,"Steatosis (histologic score, liver H&E)",[2]; [5],2.2±0.8
same,CCl4-induced increase of liver weight and ratio of liver to body weight,"[2]; p.o. 7 days before CCl4, p < 0.01",abrogated
same,"CCl4-induced increase in serum IL-1β, IL-6, and TNF-α levels",[2]; [6],significantly prevented
same,"CCl4-induced increase in the serum activities of ALT, AST, and AKP",[2]; [6],significantly prevented
same,glucuronide conjugated silybin,[3],55%
same,sulfate conjugated silybin,[3],28%
same,side effects,[4],no significant side effects
